Experimental findings from patent US8314112B2 (Novartis AG, priority 2008, dated 2012) are described below.

This assay has as its target T1, human ALK5 (kinase domain, ALK5 T204D) (Homo sapiens, UniProt P36897, T204D).
T1 construct: The kinase domain of human ALK5 (amino acids 200-503); made in house; host or cells: insect cells (baculovirus)
T1 sequence (P36897 200-503 T204D): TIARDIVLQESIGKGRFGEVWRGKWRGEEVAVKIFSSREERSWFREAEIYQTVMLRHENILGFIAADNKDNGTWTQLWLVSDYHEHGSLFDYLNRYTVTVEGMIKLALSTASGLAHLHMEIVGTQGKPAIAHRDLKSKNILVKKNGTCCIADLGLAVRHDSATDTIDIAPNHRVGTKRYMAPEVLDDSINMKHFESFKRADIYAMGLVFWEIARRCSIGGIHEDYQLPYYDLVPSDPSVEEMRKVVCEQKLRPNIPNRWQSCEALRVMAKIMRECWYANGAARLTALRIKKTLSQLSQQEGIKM
Kind of assay: ALK5 kinase assay ([33P] phosphate incorporation into casein). It is filed as biochemical. The note with it: casein substrate, 1 μM unlabelled ATP. In outline:
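His-tagged human ALK5 T204D kinase domain (aa 200-503, constitutively active, baculovirus/insect-cell expressed), 50 ng/well, preincubated 10 min with compound and dephosphorylated casein (200 μg/well) in Tris pH 7.4/MgCl2/MnCl2. Reaction started with 1 μM ATP plus [33P]ATP, 50 min at room temperature, EDTA-stopped; casein-bound 33P counted by scintillation after filter capture.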
As a reminder, the IC50 is the concentration needed to halve the response being measured. High values mean a need for much substance, low ones inhibition by little substance. In turn, `Cc1cccc(-c2cc(-c3cncc(-c4ccc(C(C)(C)N)cc4)c3)c3cc[nH]c3n2)n1` [Example 114, 1-Methyl-1-(4-{5-[6-(6-methyl-pyridin-2-yl)-1H-pyrrolo[2,3-b]pyridin-4-yl]-pyridin-3-yl}-phenyl)-ethylamine] gave an IC50 of 4.6 nM.

Compound `Cc1cccc(-c2nc(-c3cncc(-c4cncc(CN(C)C)c4)c3)c3cc[nH]c3n2)n1` [Example 75] had an IC50 of 310 nM.

`COC(=O)CN(C)Cc1cccc(-c2cncc(-c3cc(-c4cccc(C)n4)nc4[nH]ccc34)c2)c1` [Example 141, [Methyl-(3-{5-[6-(6-methyl-pyridin-2-yl)-1H-pyrrolo[2,3-b]pyridin-4-yl]-pyridin-3-yl}-benzyl)-amino]-acetic acid methyl ester] returned an IC50 of 17 nM.

Compound `Cc1cccc(-c2nc(-c3cncc(-c4ccc5c(c4)CNCC5)c3)c3cc[nH]c3n2)n1` [Example 118, 7-{5-[2-(6-Methyl-pyridin-2-yl)-7H-pyrrolo[2,3-d]pyrimidin-4-yl]-pyridin-3-yl}-1,2,3,4-tetrahydro-isoquinoline] yielded an IC50 of 3.9 nM.

`Cc1cccc(-c2cc(-c3cncc(-c4ccc(CNCCC(=O)O)cc4)c3)c3cc[nH]c3n2)n1` [Example 140, 3-(4-{5-[6-(6-Methyl-pyridin-2-yl)-1H-pyrrolo[2,3-b]pyridin-4-yl]-pyridin-3-yl}-benzylamino)-propionic acid] came in with an IC50 of 6.2 nM.

With `COC(=O)CN(C)Cc1ccc(-c2cncc(-c3cc(-c4cccc(C)n4)nc4[nH]ccc34)c2)cc1` [Example 152, [Methyl-(4-{5-[6-(6-methyl-pyridin-2-yl)-1H-pyrrolo[2,3-b]pyridin-4-yl]-pyridin-3-yl}-benzyl)-amino]-acetic acid methyl ester], half-maximal inhibition (IC50) was put at 10 nM.

In the case of `Cc1cccc(-c2cc(-c3cncc(-c4cncc(CN(C)C)c4)c3)c3cc[nH]c3n2)n1` [Example 91, Dimethyl-{5′-[6-(6-methyl-pyridin-2-yl)-1H-pyrrolo[2,3-b]pyridin-4-yl]-[3,3′]bipyridinyl-5-ylmethyl}-amine], the IC50 amounted to 109 nM.

Compound `Cc1cccc(-c2cc(-c3cncc(-c4ccc(C(C)(C)N(C)CCO)cc4)c3)c3cc[nH]c3n2)n1` [Example 163, 2-{Methyl-[1-methyl-1-(4-{5-[6-(6-methyl-pyridin-2-yl)-1H-pyrrolo[2,3-b]pyridin-4-yl]-pyridin-3-yl}-phenyl)-ethyl]-amino}-ethanol] showed an IC50 of 6.6 nM.

In turn, `Cc1cccc(-c2cc(-c3cncc(-c4cccc(CNCCO)c4)c3)c3cc[nH]c3n2)n1` [Example 132, 2-(3-{5-[6-(6-Methyl-pyridin-2-yl)-1H-pyrrolo[2,3-b]pyridin-4-yl]-pyridin-3-yl}-benzylamino)-ethanol] registered an IC50 of 5.3 nM.

`Cc1cccc(-c2nc(-c3cncc(-c4ccc(N5CCN(C(C)C)CC5)cc4)c3)c3cc[nH]c3n2)n1` [Example 15, 4-{5-[4-(4-Isopropyl-piperazin-1-yl)-phenyl]-pyridin-3-yl}-2-(6-methyl-pyridin-2-yl)-7H-pyrrolo[2,3-d]pyrimidine] had an IC50 of 160 nM.

Regarding `Cc1cccc(-c2cc(-c3cncc(-c4cccc(CN)c4)c3)c3cc[nH]c3n2)n1` [Example 86, 3-{5-[6-(6-Methyl-pyridin-2-yl)-1H-pyrrolo[2,3-b]pyridin-4-yl]-pyridin-3-yl}-benzylamine], the IC50 was found to be 8 nM.

With `Cc1cccc(-c2cc(-c3cncc(-c4cccc(CN(C)CCO)c4)c3)c3cc[nH]c3n2)n1` [Example 142, 2-[Methyl-(3-{5-[6-(6-methyl-pyridin-2-yl)-1H-pyrrolo[2,3-b]pyridin-4-yl]-pyridin-3-yl}-benzyl)-amino]-ethanol], it took 10 nM to reach half-maximal inhibition (IC50).

With `Cc1cccc(-c2cc(-c3cncc(-c4ccc(CN5CC(O)C5)cc4)c3)c3cc[nH]c3n2)n1` [Example 138, 1-(4-{5-[6-(6-Methyl-pyridin-2-yl)-1H-pyrrolo[2,3-b]pyridin-4-yl]-pyridin-3-yl}-benzyl)-azetidin-3-ol], the concentration for half-maximal inhibition (IC50) came out at 11 nM.

Consider `Cc1cccc(-c2nc(-c3cncc(-c4cccc(CNCCO)c4)c3)c3cc[nH]c3n2)n1` [Example 147, 2-(3-{5-[2-(6-Methyl-pyridin-2-yl)-7H-pyrrolo[2,3-d]pyrimidin-4-yl]-pyridin-3-yl}-benzylamino)-ethanol], for which 10 nM corresponded to half-maximal inhibition (IC50).

Consider `Cc1cccc(-c2nc(-c3cncc(NC(=O)CCCN(C)C)c3)c3cc[nH]c3n2)n1` [Example 30, 4-Dimethylamino-N-{5-[2-(6-methyl-pyridin-2-yl)-7H-pyrrolo[2,3-d]pyrimidin-4-yl]-pyridin-3-yl}-butyramide], for which the IC50 was found to be 64 nM.

`COC(=O)CNCc1cccc(-c2cncc(-c3cc(-c4cccc(C)n4)nc4[nH]ccc34)c2)c1` [Example 131, (3-{5-[6-(6-Methyl-pyridin-2-yl)-1H-pyrrolo[2,3-b]pyridin-4-yl]-pyridin-3-yl}-benzylamino)-acetic acid methyl ester] displayed an IC50 of 10 nM.

Take `Cc1cccc(-c2nc(-c3cncc4c3CCCO4)c3cc[nH]c3n2)n1` [Example 126, 5-[2-(6-Methyl-pyridin-2-yl)-7H-pyrrolo[2,3-d]pyrimidin-4-yl]-3,4-dihydro-2H-pyrano[2,3-c]pyridine]: the IC50 stood at 229 nM.

`Brc1cncc(-c2nc(-c3ccccn3)nc3[nH]ccc23)c1` [Example 44, 4-(5-Bromo-pyridin-3-yl)-2-pyridin-2-yl-7H-pyrrolo[2,3-d]pyrimidine]: the IC50 came out at 424 nM.

`Cc1cccc(-c2nc(-c3cncc(C#CCN4CCN(C)CC4)c3)c3cc[nH]c3n2)n1` [Example 122, 4-{5-[3-(4-methyl-piperazin-1-yl)-prop-1-ynyl]-pyridin-3-yl}-2-(6-methyl-pyridin-2-yl)-7H-pyrrolo[2,3-d]pyrimidine]: the IC50 amounted to 45 nM.

Regarding `Cc1cccc(-c2nc(-c3cncc(C4=CCN(C)CC4)c3)c3cc[nH]c3n2)n1` [Example 116, 1′-Methyl-5-[2-(6-methyl-pyridin-2-yl)-7H-pyrrolo[2,3-d]pyrimidin-4-yl]-1′,2′,3′,6′-tetrahydro-[3,4′]bipyridinyl], the midpoint of inhibition, the IC50, lay at 532 nM.

As for `Cc1cccc(-c2nc(-c3cncc(NC(=O)CCO)c3)c3cc[nH]c3n2)n1` [Example 54, 3-Hydroxy-N-{5-[2-(6-methyl-pyridin-2-yl)-7H-pyrrolo[2,3-d]pyrimidin-4-yl]-pyridin-3-yl}-propionamide], half-maximal inhibition (IC50) was put at 119 nM.

The compound `COc1cncc(-c2cc(-c3cccc(C)n3)nc3[nH]ccc23)c1` [Example 47, 4-(5-Methoxy-pyridin-3-yl)-6-(6-methyl-pyridin-2-yl)-1H-pyrrolo[2,3-b]pyridine] registered an IC50 of 28 nM.

The compound `Cc1cccc(-c2nc(-c3cncc(O)c3)c3cc[nH]c3n2)n1` [Example 80, 5-[2-(6-Methyl-pyridin-2-yl)-7H-pyrrolo[2,3-d]pyrimidin-4-yl]-pyridin-3-ol] came in with an IC50 of 239 nM.

`Cc1cccc(-c2cc(-c3cncc(-c4ccc(CNCCO)cc4)c3)c3cc[nH]c3n2)n1` [Example 135, 2-(4-{5-[6-(6-Methyl-pyridin-2-yl)-1H-pyrrolo[2,3-b]pyridin-4-yl]-pyridin-3-yl}-benzylamino)-ethanol] had an IC50 of 3.3 nM.

`Cc1cccc(-c2cc(-c3cncc(OC(C)C)c3)c3cc[nH]c3n2)n1` [Example 64, 4-(5-Isopropoxy-pyridin-3-yl)-6-(6-methyl-pyridin-2-yl)-1H-pyrrolo[2,3-b]pyridine] registered an IC50 of 250 nM.

With `Cc1cccc(-c2cc(-c3cncc(-c4ccc(CN5CC[C@@H](N(C)C)C5)cc4)c3)c3cc[nH]c3n2)n1` [Example 108, Dimethyl-[(R)-1-(4-{5-[6-(6-methyl-pyridin-2-yl)-1H-pyrrolo[2,3-b]pyridin-4-yl]-pyridin-3-yl}-benzyl)-pyrrolidin-3-yl]-amine], the IC50 stood at 4.6 nM.

Turning to `Cc1cccc(-c2cc(-c3cncc(-c4cccc(C5CCCN5)c4)c3)c3cc[nH]c3n2)n1` (centres unmarked) [Example 120, 6-(6-Methyl-pyridin-2-yl)-4-[5-(3-pyrrolidin-2-yl-phenyl)-pyridin-3-yl]-1H-pyrrolo[2,3-b]pyridine], the IC50 worked out at 3.6 nM.

The compound `COc1ccccc1-c1cncc(-c2nc(-c3cccc(C)n3)nc3[nH]ccc23)c1` [Example 8, 4-[5-(2-Methoxy-phenyl)-pyridin-3-yl]-2-(6-methyl-pyridin-2-yl)-7H-pyrrolo[2,3-d]pyrimidine] gave an IC50 of 478 nM.

Regarding `Cc1cccc(-c2nc(-c3cncc(-c4ccncc4)c3)c3cc[nH]c3n2)n1` [Example 21, 5-[2-(6-Methyl-pyridin-2-yl)-7H-pyrrolo[2,3-d]pyrimidin-4-yl]-[3,4′]bipyridinyl], the IC50 was 84 nM.

As for `C#Cc1cncc(-c2nc(-c3cccc(C)n3)nc3[nH]ccc23)c1` [Example 119, 4-(5-Ethynyl-pyridin-3-yl)-2-(6-methyl-pyridin-2-yl)-7H-pyrrolo[2,3-d]pyrimidine], the IC50 was determined as 292 nM.

Turning to `COc1cccc(-c2cncc(-c3nc(-c4cccc(C)n4)nc4[nH]ccc34)c2)c1` [Example 6, 4-[5-(3-Methoxy-phenyl)-pyridin-3-yl]-2-(6-methyl-pyridin-2-yl)-7H-pyrrolo[2,3-d]pyrimidine], the IC50 amounted to 32 nM.

On to `Cc1cccc(-c2nc(-c3cncc(-c4cccc(CN(C)CC(=O)O)c4)c3)c3cc[nH]c3n2)n1` [Example 145], for which the IC50 came out at 26 nM.
